Columns and labels:
[1] = Neurotoxicity assay: MTS viability of primary cortical neuronal cultures; assay type: cell-based, mouse; conditions: BL6Jx129sv, mouse, primary cortical neuronal cultures, Neuronal cells, read-out: Cytotoxicity (% viable at 1 and 10 uM); for viability at 4 days, 1 uM: test compound 1 uM; for viability at 4 days, 10 uM: test compound 10 uM
[2] = Mice plasma concentration; assay type: in vivo; conditions: for Mice plasma concentration: presence in plasma at one or two time points (between 30 min and 4 h); for Mice plasma concentration (single dose): one or two time points (between 30 min and 4 h)
[3] = Blood brain barrier penetration (brain:plasma ratio after IV dose); assay type: in vivo; conditions: nominal dose 5 mg/kg, male Swiss Outbred mice
Experimental: A bolus injection of each of the test compound (50 μL of a 3 mg/mL aqueous solution containing 40% propylene glycol and 10% ethanol) was administered by tail vein injection to male Swiss Outbred mice (5-7 weeks of age).
At 5 and 60 min post-dose (n=3 mice at each time point), blood was collected by cardiac puncture and the whole brain was removed by making an incision through the back of the skull. Mice were anaesthetised approximately 3-4 min prior to blood and brain harvest with an intraperitoneal injection of ketamine and xylazine (133 mg/kg and 10 mg/kg, respectively).
The whole brain was placed into preweighed polypropylene vials and stored at −20° C. until analysis. On the day of analysis, the whole brain was homogenised in 3 parts of water (on ice to reduce the potential for ex vivo brain degradation) and an aliquot of the brain homogenate and plasma was analysed for compound concentration by LCMS. Standards were prepared by spiking blank brain homogenate and both samples and standards were processed by adding acetonitrile to the tissue homogenate, centrifuging and injecting an aliquot of the supernatant onto the LCMS.
To ensure complete recovery of compound from the brain, brain homogenate was spiked with compound (in 50% acetonitrile:50% water) to a nominal concentration of 500 ng/mL. The concentration of compound in the supernatant was then determined by LCMS and compared to the supernatant concentration when compound was added following precipitation with acetonitrile.

[4] = Cytotoxicity: viability of M17 cells; conditions: human, M17 neuroblastoma cells, Cytotoxicity (% viable at 1 and 10 uM); for viability at 1 uM: test compound 1 uM; for viability at 10 uM: test compound 10 uM
[5] = In vivo toxicity, visual observations; conditions: 30 mg/kg, number of days

SMILES: CN(C)Cc1ccc2c(Cl)cc(Cl)c(O)c2n1.Cl [drawing 119]
- viability at 4 days, 1 uM [1]: 84%
- viability at 4 days, 10 uM [1]: 72%
- Mice plasma concentration [2]: Up to 500 ng/ml ng/mL
- B:P Ratio ([3]; 5 min post dose): 12.85
- B:P Ratio ([3]; 60 min post dose): 9.45
- viability at 1 uM [4]: 94%
- viability at 10 uM [4]: 54.3%
- Toxicity at 30 mg/kg [5]: None

SMILES: Cn1cnc(CCNC(=O)c2ccc3c(Cl)cc(Cl)c(O)c3n2)c1
- viability at 4 days, 1 uM [1]: 93%
- viability at 4 days, 10 uM [1]: 88%
- Mice plasma concentration [2]: Up to 11605 ng/mL
- B:P Ratio ([3]; 5 min post dose): 0.06
- B:P Ratio ([3]; 60 min post dose): 0.20
- viability at 1 uM [4]: 108%
- viability at 10 uM [4]: 82.6%
- Toxicity at 30 mg/kg [5]: 10 days, none

SMILES: Br.CCN(CC)CCn1cnc2c(O)c(Cl)cc(Cl)c2c1=O
- viability at 4 days, 1 uM [1]: 107%
- viability at 4 days, 10 uM [1]: 77%
- Mice plasma concentration (single dose) [2]: Up to 113.2 ng/mL (single dose)
- viability at 1 uM [4]: 100%
- viability at 10 uM [4]: 70.3%
- Toxicity at 30 mg/kg [5]: 10 days, none

SMILES: O=c1c2c(Cl)cc(Cl)c(O)c2ncn1C1CC1
- viability at 4 days, 1 uM [1]: 91%
- viability at 4 days, 10 uM [1]: 77%
- Mice plasma concentration [2]: Up to 5000 ng/mL
- B:P Ratio ([3]; 5 min post dose): 0.26
- B:P Ratio ([3]; 60 min post dose): 0.24
- viability at 1 uM [4]: 105%
- viability at 10 uM [4]: 72%
- Toxicity at 30 mg/kg [5]: 10 days, none

SMILES: O=c1c2c(Cl)cc(Cl)c(O)c2ncn1-c1ccccn1 [drawing 171]
- viability at 4 days, 1 uM [1]: 95%
- viability at 4 days, 10 uM [1]: 81%
- Mice plasma concentration (single dose) [2]: Up to 142.9 ng/mL (single dose)
- viability at 1 uM [4]: 101%
- viability at 10 uM [4]: 80.5%
- Toxicity at 30 mg/kg [5]: 10 days, none

SMILES: Br.CCCn1cnc2c(O)c(Cl)cc(Cl)c2c1=O
- viability at 4 days, 1 uM [1]: 102%
- viability at 4 days, 10 uM [1]: 83%
- Mice plasma concentration [2]: Up to 2641 ng/mL
- viability at 1 uM [4]: 107%
- viability at 10 uM [4]: 98.8%
- Toxicity at 30 mg/kg [5]: 10 days, none

SMILES: CCCc1cnc2c(O)c(I)ccn2c1=O
- Mice plasma concentration [2]: Up to 11742 ng/ml ng/mL
- B:P Ratio ([3]; 5 min post dose): 0.02
- B:P Ratio ([3]; 60 min post dose): 0.03
- viability at 1 uM [4]: 80.8%
- viability at 10 uM [4]: 47.6%
- Toxicity at 30 mg/kg [5]: 10 days, none

SMILES: Cn1c(-n2cnc3c(O)c(Cl)cc(Cl)c3c2=O)nc2ccccc21
- viability at 4 days, 1 uM [1]: 105%
- viability at 4 days, 10 uM [1]: 97%
- Mice plasma concentration [2]: Up to 112.4 ng/mL
- viability at 1 uM [4]: 107%
- viability at 10 uM [4]: 94.9%
- Toxicity at 30 mg/kg [5]: 10 days, none

SMILES: CCNCc1ccc2c(Cl)cc(Cl)c(O)c2n1.Cl
- viability at 4 days, 1 uM [1]: 87%
- viability at 4 days, 10 uM [1]: 56%
- Mice plasma concentration [2]: Up to 403 ng/mL
- viability at 1 uM [4]: 78.3%
- viability at 10 uM [4]: 44%
- Toxicity at 30 mg/kg [5]: 10 days, none

SMILES: CC(C)Cn1cnc2c(O)c(Cl)cc(Cl)c2c1=O
- viability at 4 days, 1 uM [1]: 99%
- viability at 4 days, 10 uM [1]: 70%
- Mice plasma concentration [2]: Up to 1802 ng/mL
- viability at 1 uM [4]: 102%
- viability at 10 uM [4]: 75.6%
- Toxicity at 30 mg/kg [5]: 10 days, none

SMILES: O=c1c2c(Cl)cc(Cl)c(O)c2ncn1CCN1CCCC1
- viability at 4 days, 1 uM [1]: 104%
- viability at 4 days, 10 uM [1]: 91%
- Mice plasma concentration (single dose) [2]: Up to 520 ng/mL (single dose)
- viability at 1 uM [4]: 104%
- viability at 10 uM [4]: 101%
- Toxicity at 30 mg/kg [5]: 14 days, 1 of 4 death

SMILES: CCCn1cnc2c(O)c(I)ccc2c1=S
- Mice plasma concentration [2]: Up to 1593 ng/ml ng/mL
- viability at 1 uM [4]: 89.9%
- viability at 10 uM [4]: 86.2%
- Toxicity at 30 mg/kg [5]: 10 days, none

SMILES: O=c1c2c(Cl)cc(Cl)c(O)c2ncn1Cc1nccs1
- Mice plasma concentration [2]: Up to 441.4 ng/mL
- viability at 1 uM [4]: 96%
- viability at 10 uM [4]: 99.8%
- Toxicity at 30 mg/kg [5]: 10 days, none

SMILES: O=c1c2c(Cl)cc(Cl)c(O)c2ncn1Cc1ccncc1
- Mice plasma concentration [2]: Up to 2181.1 ng/mL
- viability at 1 uM [4]: 105%
- viability at 10 uM [4]: 90.4%
- Toxicity at 30 mg/kg [5]: 10 days, none

SMILES: O=c1c2c(Cl)cc(Cl)c(O)c2ncn1Cc1ccn2ccnc2c1
- Mice plasma concentration [2]: Up to 1465.4 ng/mL
- viability at 1 uM [4]: 105%
- viability at 10 uM [4]: 105%
- Toxicity at 30 mg/kg [5]: 10 days, none

SMILES: OCCN1C=Nc2c(O)c(Cl)cc(Cl)c2C1
- viability at 4 days, 1 uM [1]: 107%
- viability at 4 days, 10 uM [1]: 96%
- Mice plasma concentration [2]: Up to 8134.8 ng/mL
- viability at 1 uM [4]: 115%
- viability at 10 uM [4]: 119%
- Toxicity at 30 mg/kg [5]: 10 days, none

SMILES: O=c1c2c(Cl)cc(Cl)c(O)c2ncn1-c1cc[nH]n1
- Mice plasma concentration [2]: Up to 1477.4 ng/mL
- viability at 1 uM [4]: 126%
- viability at 10 uM [4]: 115%
- Toxicity at 30 mg/kg [5]: 10 days, none

SMILES: O=c1c2c(Cl)cc(Cl)c(O)c2ncn1N1CCOCC1
- viability at 4 days, 1 uM [1]: 105%
- viability at 4 days, 10 uM [1]: 70%
- Mice plasma concentration [2]: Up to 45.2 ng/mL
- viability at 1 uM [4]: 95.9%
- viability at 10 uM [4]: 80.9%
- Toxicity at 30 mg/kg [5]: 10 days, none

SMILES: Br.CN1CCCC1Cn1cnc2c(O)c(Cl)cc(Cl)c2c1=O (stereo not shown)
- Mice plasma concentration [2]: Up to 382.5 ng/mL
- viability at 1 uM [4]: 107%
- viability at 10 uM [4]: 93.9%
- Toxicity at 30 mg/kg [5]: 10 days, none

SMILES: O=c1c2c(Cl)cc(Cl)c(O)c2ncn1CCNCc1ccncc1
- Mice plasma concentration [2]: Up to 1639.8 ng/mL
- viability at 1 uM [4]: 103%
- viability at 10 uM [4]: 105%
- Toxicity at 30 mg/kg [5]: 10 days, none

SMILES: Br.CCC(C)n1cnc2c(O)c(Cl)cc(Cl)c2c1=O (stereo not shown) [drawing 185]
- viability at 4 days, 1 uM [1]: 104%
- viability at 4 days, 10 uM [1]: 71%
- Mice plasma concentration [2]: Up to 383 ng/mL
- viability at 1 uM [4]: 94.3%
- viability at 10 uM [4]: 74.5%
- Toxicity at 30 mg/kg [5]: 10 days, none

SMILES: O=c1c2ccc(I)c(O)c2ncn1CC1CC1
- Mice plasma concentration [2]: Up to 2508 ng/mL
- B:P Ratio ([3]; 5 min post dose): 0.07
- B:P Ratio ([3]; 60 min post dose): 0.06
- viability at 1 uM [4]: 111%
- viability at 10 uM [4]: 65.1%
- Toxicity at 30 mg/kg [5]: 10 days, none

SMILES: Cn1ccnc1Cn1cnc2c(O)c(Cl)cc(Cl)c2c1=O
- Mice plasma concentration [2]: Up to 13214.8 ng/mL
- viability at 1 uM [4]: 108%
- viability at 10 uM [4]: 97.6%
- Toxicity at 30 mg/kg [5]: 10 days, none

SMILES: Br.CCN(CC)Cc1nc2c(O)c(Cl)cc(Cl)c2c(=O)[nH]1
- Mice plasma concentration [2]: Up to 2289 ng/mL
- viability at 1 uM [4]: 106%
- viability at 10 uM [4]: 99.1%
- Toxicity at 30 mg/kg [5]: 10 days, none

SMILES: O=c1c2c(Cl)cc(Cl)c(O)c2ncn1Nc1ccc(F)cc1F
- viability at 4 days, 1 uM [1]: 100%
- viability at 4 days, 10 uM [1]: 92%
- Mice plasma concentration [2]: Up to 1,130.6 ng/mL
- viability at 1 uM [4]: 105%
- viability at 10 uM [4]: 83.1%
- Toxicity at 30 mg/kg [5]: 10 days, none

SMILES: O=c1c2c(Cl)cc(Cl)c(O)c2ncn1Cc1cn2ccccc2n1
- Mice plasma concentration [2]: Up to 98.3 ng/mL
- viability at 1 uM [4]: 109%
- viability at 10 uM [4]: 98.2%
- Toxicity at 30 mg/kg [5]: 10 days, none
